Assay results published in PubChem BioAssay AID1963446 (Molecular Pharmacology Branch, DTP, NCI, 2024).
Where “and” joins values, the source holds several entries; their conditions need not be identical. Identical values can stand only once. Blank lines part the entries; values can stand above or below the compound they belong to.

Tested on: 993429-296-R-J1-PDC complex spheroid growth, percent test/control
Assay: Anticancer human tumor 993429-296-R-J1-PDC patient-derived uterine sarcoma cell line growth inhibition [Asc]
Settings: for viability, T/C: stronger effect = lower value
In short: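 Tumor cells were grown as complex spheroids with human endothelial cells (HUVEC) and human mesenchymal stem cells as stroma. Agents were tested alone and in combination, in half-log steps down from the clinical Cmax, or from 10 microM where Cmax was unknown.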

[1] = curve of first compound, second compound 0.1 µM
[2] = curve of first compound, second compound 0.316 µM
[3] = curve of first compound, second compound 1 µM
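Also: spheroids exposed to compounds for seven days.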

Compound: NC(=O)C(=Cn1cnc(-c2cc(C(F)(F)F)cc(C(F)(F)F)c2)n1)c1cncnc1 + CCN1C(C(=O)NC23CCC(C(=O)O)(CC2)CC3)C(c2cccc(Cl)c2F)C2(C(=O)Nc3cc(Cl)ccc32)C12CCCCC2
IC50 (curve of first compound, second compound 0.03 µM): 18.6 nM | IC50 (curve of first compound, second compound 0.0949 µM): 15.5 nM | IC50 (curve of first compound, second compound 0.3 µM): 14 nM | IC50 (curve of first compound, second compound 0.949 µM): 20.3 nM | IC50 (curve of first compound, second compound 3 µM): 13.3 nM | viability, T/C (second compound 0.03 µM, first compound 0.000949 µM): 98% | viability, T/C (second compound 0.03 µM, first compound 0.003 µM): 97.9% | viability, T/C (second compound 0.03 µM, first compound 0.00949 µM): 71% | viability, T/C (second compound 0.03 µM, first compound 0.03 µM): 34% | viability, T/C (second compound 0.03 µM, first compound 0.0949 µM): 17.8% | viability, T/C (second compound 0.03 µM, first compound 0.3 µM): 9.36% | viability, T/C (second compound 0.0949 µM, first compound 0.000949 µM): 95.3% | viability, T/C (second compound 0.0949 µM, first compound 0.003 µM): 87% | viability, T/C (second compound 0.0949 µM, first compound 0.00949 µM): 63.4% | viability, T/C (second compound 0.0949 µM, first compound 0.03 µM): 31.9% | viability, T/C (second compound 0.0949 µM, first compound 0.0949 µM): 14.9% | viability, T/C (second compound 0.0949 µM, first compound 0.3 µM): 8.83% | viability, T/C (second compound 0.3 µM, first compound 0.000949 µM): 89.3% | viability, T/C (second compound 0.3 µM, first compound 0.003 µM): 85.6% | viability, T/C (second compound 0.3 µM, first compound 0.00949 µM): 55.4% | viability, T/C (second compound 0.3 µM, first compound 0.03 µM): 33.4% | viability, T/C (second compound 0.3 µM, first compound 0.0949 µM): 19.7% | viability, T/C (second compound 0.3 µM, first compound 0.3 µM): 9.08% | viability, T/C (second compound 0.949 µM, first compound 0.000949 µM): 83% | viability, T/C (second compound 0.949 µM, first compound 0.003 µM): 90% | viability, T/C (second compound 0.949 µM, first compound 0.00949 µM): 83.3% | viability, T/C (second compound 0.949 µM, first compound 0.03 µM): 33% | viability, T/C (second compound 0.949 µM, first compound 0.0949 µM): 14% | viability, T/C (second compound 0.949 µM, first compound 0.3 µM): 7.67% | viability, T/C (second compound 3 µM, first compound 0.000949 µM): 81.7% | viability, T/C (second compound 3 µM, first compound 0.003 µM): 87.5% | viability, T/C (second compound 3 µM, first compound 0.00949 µM): 55.4% | viability, T/C (second compound 3 µM, first compound 0.03 µM): 29.8% | viability, T/C (second compound 3 µM, first compound 0.0949 µM): 13% | viability, T/C (second compound 3 µM, first compound 0.3 µM): 8.21%

Compound: C=CC(=O)N1CCN(c2nc(=O)n(-c3c(C)ccnc3C(C)C)c3nc(-c4c(O)cccc4F)c(F)cc23)C(C)C1 (centres undefined)
viability, T/C (compound 0.0316 µM): 90.9% and 96.8% and 96.9% | viability, T/C (compound 0.1 µM): 104% and 92.1% and 93.1% | viability, T/C (compound 0.316 µM): 104% and 92.4% and 105% | viability, T/C (compound 1 µM): 102% and 106% and 110% | viability, T/C (compound 3.16 µM): 64.9% and 109% and 115% | viability, T/C (compound 10 µM): 72.8% and 77% and 94% | IC50 (curve of compound): > 10000 nM

Compound: NC1CCC(NC2CC2c2ccccc2)CC1 (centres undefined) + Cc1c(S(C)(=O)=O)c(-c2cc(F)cc(N3CCN(c4ccc(NS(=O)(=O)c5ccc(NC(CCN6CCC(C(=O)OCCCP(=O)(O)O)CC6)CSc6ccccc6)c(S(=O)(=O)C(F)(F)F)c5)cc4)CC3)c2)c(-c2ccc(Cl)cc2)n1C(C)C
IC50 [1]: > 100 nM | IC50 [2]: 8.25 nM | IC50 [3]: < 0.316 nM | IC50 (curve of first compound, second compound 3.16 µM): < 0.316 nM | IC50 (curve of first compound, second compound 10 µM): < 0.316 nM | viability, T/C (second compound 0.1 µM, first compound 0.000316 µM): 72.7% | viability, T/C (second compound 0.1 µM, first compound 0.001 µM): 65.1% | viability, T/C (second compound 0.1 µM, first compound 0.00316 µM): 65% | viability, T/C (second compound 0.1 µM, first compound 0.01 µM): 57.6% | viability, T/C (second compound 0.1 µM, first compound 0.0316 µM): 65.2% | viability, T/C (second compound 0.1 µM, first compound 0.1 µM): 65.3% | viability, T/C (second compound 0.316 µM, first compound 0.000316 µM): 61.2% | viability, T/C (second compound 0.316 µM, first compound 0.001 µM): 60.9% | viability, T/C (second compound 0.316 µM, first compound 0.00316 µM): 57% | viability, T/C (second compound 0.316 µM, first compound 0.01 µM): 46.4% | viability, T/C (second compound 0.316 µM, first compound 0.0316 µM): 47.9% | viability, T/C (second compound 0.316 µM, first compound 0.1 µM): 51.6% | viability, T/C (second compound 1 µM, first compound 0.000316 µM): 32.5% | viability, T/C (second compound 1 µM, first compound 0.001 µM): 30.4% | viability, T/C (second compound 1 µM, first compound 0.00316 µM): 29.1% | viability, T/C (second compound 1 µM, first compound 0.01 µM): 30.5% | viability, T/C (second compound 1 µM, first compound 0.0316 µM): 28.3% | viability, T/C (second compound 1 µM, first compound 0.1 µM): 35.4% | viability, T/C (second compound 3.16 µM, first compound 0.000316 µM): 27% | viability, T/C (second compound 3.16 µM, first compound 0.001 µM): 28.9% | viability, T/C (second compound 3.16 µM, first compound 0.00316 µM): 28.6% | viability, T/C (second compound 3.16 µM, first compound 0.01 µM): 25.6% | viability, T/C (second compound 3.16 µM, first compound 0.0316 µM): 30.5% | viability, T/C (second compound 3.16 µM, first compound 0.1 µM): 31.7% | viability, T/C (second compound 10 µM, first compound 0.000316 µM): 30% | viability, T/C (second compound 10 µM, first compound 0.001 µM): 41.7% | viability, T/C (second compound 10 µM, first compound 0.00316 µM): 26.4% | viability, T/C (second compound 10 µM, first compound 0.01 µM): 26.3% | viability, T/C (second compound 10 µM, first compound 0.0316 µM): 32.9% | viability, T/C (second compound 10 µM, first compound 0.1 µM): 36.8%

Now from value to compound, other results behind:

IC50 (curve of compound): > 1000 nM
Compound: CCN1CCN(Cc2ccc(Nc3ncc(F)c(-c4cc(F)c5nc(C)n(C(C)C)c5c4)n3)nc2)CC1
viability, T/C (compound 0.00316 µM): 90.1% (2×) and 100% | viability, T/C (compound 0.01 µM): 86.7% and 111% and 99.3% | viability, T/C (compound 0.0316 µM): 94.1% and 105% and 92.7% | viability, T/C (compound 0.1 µM): 85.6% and 98.3% and 93.6% | viability, T/C (compound 0.316 µM): 98.6% and 119% and 100% | viability, T/C (compound 1 µM): 88.5% and 94.9% and 86.3%

IC50 (curve of first compound, second compound 0.01 µM): 103 nM | IC50 (curve of first compound, second compound 0.0316 µM): 84.7 nM | IC50 [1]: 56.8 nM | IC50 [2]: < 9.49 nM | IC50 [3]: 107 nM
Compound: Cc1nc(N2CCC3(CC2)COC(C)C3N)c(CO)nc1Sc1ccnc(N)c1Cl (centres undefined) + CNC(C)C(=O)NC1CN(S(=O)(=O)c2cccc(S(=O)(=O)N3CCC4CCC(C(=O)NC(c5ccccc5)c5ccccc5)N4C(=O)C(NC(=O)C(C)NC)C3)c2)CCC2CCC(C(=O)NC(c3ccccc3)c3ccccc3)N2C1=O
viability, T/C (second compound 0.01 µM, first compound 0.00949 µM): 68.6% | viability, T/C (second compound 0.01 µM, first compound 0.03 µM): 61.1% | viability, T/C (second compound 0.01 µM, first compound 0.0949 µM): 49.5% | viability, T/C (second compound 0.01 µM, first compound 0.3 µM): 42.5% | viability, T/C (second compound 0.01 µM, first compound 0.949 µM): 37% | viability, T/C (second compound 0.01 µM, first compound 3 µM): 32.2% | viability, T/C (second compound 0.0316 µM, first compound 0.00949 µM): 67.5% | viability, T/C (second compound 0.0316 µM, first compound 0.03 µM): 57.5% | viability, T/C (second compound 0.0316 µM, first compound 0.0949 µM): 50.9% | viability, T/C (second compound 0.0316 µM, first compound 0.3 µM): 39.4% | viability, T/C (second compound 0.0316 µM, first compound 0.949 µM): 36.7% | viability, T/C (second compound 0.0316 µM, first compound 3 µM): 30.9% | viability, T/C (second compound 0.1 µM, first compound 0.00949 µM): 60.1% | viability, T/C (second compound 0.1 µM, first compound 0.03 µM): 54.9% | viability, T/C (second compound 0.1 µM, first compound 0.0949 µM): 45.2% | viability, T/C (second compound 0.1 µM, first compound 0.3 µM): 39.8% | viability, T/C (second compound 0.1 µM, first compound 0.949 µM): 29% | viability, T/C (second compound 0.1 µM, first compound 3 µM): 28.3% | viability, T/C (second compound 0.316 µM, first compound 0.00949 µM): 43.6% | viability, T/C (second compound 0.316 µM, first compound 0.03 µM): 48.9% | viability, T/C (second compound 0.316 µM, first compound 0.0949 µM): 51.9% | viability, T/C (second compound 0.316 µM, first compound 0.3 µM): 41.3% | viability, T/C (second compound 0.316 µM, first compound 0.949 µM): 32.4% | viability, T/C (second compound 0.316 µM, first compound 3 µM): 29.2% | viability, T/C (second compound 1 µM, first compound 0.00949 µM): 53.1% | viability, T/C (second compound 1 µM, first compound 0.03 µM): 48.1% | viability, T/C (second compound 1 µM, first compound 0.0949 µM): 52.2% | viability, T/C (second compound 1 µM, first compound 0.3 µM): 40% | viability, T/C (second compound 1 µM, first compound 0.949 µM): 20.5% | viability, T/C (second compound 1 µM, first compound 3 µM): 26.7%
